{
  "source": "patent US20220280471A1",
  "about": "“Treatment of Affective Disorders” (Vanda Pharmaceuticals Inc., priority 2017, published 2022)",
  "tested_on": "patients with MDD",
  "test": "Double-masked, placebo-controlled clinical study of tasimelteon in patients with MDD (NCT01428661), Hamilton Depression Scale",
  "format": "in vivo, human",
  "experimental": "A large clinical study was conducted to evaluate the effects of tasimelteon on depressive symptoms in patients with MDD. Details of the study design are set out in study number NCT01428661, available at clinicaltrials.gov. Aspects of the study relevant to the claimed invention are described below.\nA total of 507 patients with MDD were enrolled in a double-masked, placebo-controlled study randomized on either tasimelteon 20 mg (n=254) or placebo (n=253). Patients were assessed at baseline and weekly for eight weeks on a number of depression scales, including the Hamilton Depression Scale (HAMD).",
  "data": [
    {"compound": "CCC(=O)NC[C@@H]1C[C@H]1c1cccc2c1CCO2", "note": "(relative stereo) [Tasimelteon, trans-N-[[2-(2,3-dihydrobenzofuran-4-yl)cycloprop-1yl]methyl] propanamide]", "values": [
      {"measurement": "improvement on the HAMD scale", "setting": "African-American MDD patients, at eight weeks, tasimelteon 20 mg (n=78), p=0.018 vs placebo", "value": 9.9, "unit": "points"},
      {"measurement": "responder analysis (improvement in the HAMD scale of 50% or greater from baseline), patients showing improvement", "setting": "African-American MDD patients, at eight weeks, tasimelteon 20 mg, p=0.0019 vs placebo", "value": 59, "unit": "%"},
      {"measurement": "improvement from baseline on the HAMD scale", "setting": "all randomized MDD patients, tasimelteon 20 mg (n=254), p=0.57 vs placebo", "value": 8.1, "unit": "points"}
    ]}
  ]
}
